Results: patent publication US20080081826A1, “SYSTEM FOR EFFECTING WEIGHT LOSS” (priority 2006, published 2008)

Key:
[1] = tested on: gastric and pancreatic lipase; conditions: literature; cited from earlier work
[2] = Clinical weight loss studies (historical) in overweight or obese patients, 12 or 24 weeks; assay type: in vivo, human patients; conditions: no meal replacement
Method: To conduct the studies, patients who were diagnosed as overweight or obese were chosen for clinical trials to assess weight loss as a function of prescribed meal replacements or a weight loss agent (sibutramine). Co-administration of both a weight loss agent and meal replacement was also tested.
All patients received lifestyle modification training of either a moderate (data Groups 1-9, 11, and 12) or intensive (data Group 10) character which included a patient's participation in record keeping, professional consultation, and exercise in addition to the dietary protocol. Patients placed on a “Moderate” lifestyle management program were given a diet sheet with instructions for a defined intake of daily calories ranging from 800-1600 kcal, or a 600 kcal deficit diet, with or without exercise and routine visits with the Primary Care Provider to reinforce diet and behavior modification, but relying primarily on patient self-monitoring. Patients placed on an “Intensive” lifestyle management program were given a diet sheet with a defined intake of daily calories ranging from 800-1600 kcal, or a 600 kcal deficit diet, with meals recorded in a food diary, and were provided with ongoing diet counseling and caloric adjustment according to weight loss “Intensive” patients were also given defined minimal weekly requirements for exercise and instructed to record their activities in an exercise diary that was then collected and reviewed by the Primary Care Provider. The Intensive program also included routine visits throughout the course of the study with a Dietitian and the Primary Care Provider in order to reinforce diet and behavior modification.
Patients in some groups (see Table 2, data Groups 2, 11, and 12) utilized meal replacement formulations. These individuals were given a diet sheet with a defined intake of daily calories ranging from 800-1600 kcal, or a 600 kcal deficit diet, with a meal replacement formulation taken once or twice daily instead of a food meal, and routine visits with a Primary Care Provider to reinforce diet and behavior modification, but relying primarily on patient self-monitoring.
The remainder of the patients (see Table 2, data Groups 3-11) also received daily doses of sibutramine at 10 mg/day (data Groups 3-7 and 11) or 15 mg/day (data Groups 8, 9, and 12). Individuals in data Groups 11 and 12 were given a diet sheet with a defined intake of daily calories ranging from 800-1600 kcal, or a 600 kcal deficit diet, with a meal replacement formulation (SlimFast®) taken once or twice daily instead of a food meal where applicable (see Table 2), and routine visits with a Primary Care Provider to reinforce diet and behavior modification, but relying primarily on patient self-monitoring. Patients in data Group 10 were placed on a 10 mg/day sibutramine and “Intensive” life style management regimen with no meal replacement.
In each of the studies, patients were monitored for weight loss over a 12- or 24-week period. The data groups ranged in size from 17 to 592 patients, and were placed on either a conventional diet with moderate lifestyle management program (data Group 1), or a diet including a meal replacement component including substitution of either one or two meals per day with a meal replacement formulation, as part of a moderate lifestyle management (data Group 2), or a conventional diet plus one daily dose of sibutramine (10 mg) with a moderate or intensive lifestyle management (data Groups 3-7 and 10), a conventional diet plus one daily dose of sibutramine (15 mg) with moderate lifestyle management (data Groups 8 and 9), and finally, a diet with one or two meal replacements (SlimFast®) plus one daily dose of sibutramine (10 mg) and moderate lifestyle management (data Group 11) or a diet with one or two meal replacements (SlimFast®) plus one daily dose of sibutramine (10 mg for 12 weeks followed by 15 mg for 12 weeks) (data Group 12).
All subjects received moderate or intensive lifestyle management training. […]

[3] = data Groups 8 and 9: 15 mg sibutramine + moderate lifestyle management, 24 weeks

Compound | fraction of the fat contained in a meal whose absorption is blocked [1] | Mean Weight Change (kg) (LOCF*) ([2]; data Group 3: sibutramine 10 mg/day, moderate lifestyle management, 12 weeks) | weight loss (lower end of range, sibutramine only) ([2]; data Group 3 as worded in text: 10 mg sibutramine/day + moderate lifestyle management, latest observation to week 12) [kg] | Mean Weight Change (kg) (LOCF*) ([2]; data Group 4: sibutramine 10 mg/day, moderate lifestyle management, 12 weeks) | mean weight loss ([2]; data Group 5: 10 mg/day sibutramine + moderate lifestyle management, latest observation to week 12) [kg] | Mean Weight Change (kg) (LOCF*) ([2]; data Group 5: sibutramine 10 mg/day, moderate lifestyle management, 12 weeks) | Mean Weight Change (kg) (LOCF*) ([2]; data Group 6: sibutramine 10 mg/day, moderate lifestyle management, 12 weeks) | Mean Weight Change (kg) (LOCF*) ([2]; data Group 7: sibutramine 10 mg/day, moderate lifestyle management, 12 weeks) | Mean Weight Change (kg) (LOCF*) ([2]; data Group 8: sibutramine 15 mg/day, moderate lifestyle management, 24 weeks) | Mean Weight Change (kg) (LOCF*) ([2]; data Group 9: sibutramine 15 mg/day, moderate lifestyle management, 24 weeks) | weight loss (upper end of range, sibutramine only) ([2]; data Group 10: 10 mg sibutramine/day + intensive lifestyle management, latest observation to week 12) [kg] | Mean Weight Change (kg) (LOCF*) ([2]; data Group 10: sibutramine 10 mg/day, intensive lifestyle management, 12 weeks) | overall average weight loss of all groups ([2]; data Groups 3-7: 10 mg/day sibutramine, moderate lifestyle management, 12 weeks) [kg] | average weight loss [2, 3] [kg] | improvement of average weight loss by the higher 15 mg dose [2, 3]
CCCCCCCCCCC[C@H](C[C@H]1OC(=O)[C@H]1CCCCCC)OC(=O)[C@@H](CC(C)C)NC=O [orlistat, (2S,3S,5S)-5-[(S)-2-formamido-4-methylvaleryloxy]-2-hexyl-3-hydroxyhexadecanoic acid lactone] | about one third | – | – | – | – | – | – | – | – | – | – | – | – | – | –
CC(C)CC(N(C)C)C1(c2ccc(Cl)cc2)CCC1 (stereo not drawn) [sibutramine, N,N-dimethyl-1-[1-(4-chlorophenyl)cyclobutyl]-3-methylbutylamine] | – | -3.9 | 3.7 | -6.2 | 3.7 | -3.7 | -5 | -4.2 | -6.4 | -5.6 | 8.4 | -8.4 | 4.6 | 6.0 | approximately 25%
